From patent publication US11613531B2, “Inhibitors of RHO associated coiled-coil containing protein kinase” (Kadmon Corporation, LLC, priority 2017, dated 2023)
“And” between values parts separate entries of the source, which are not always exact repeats. Equal values may be shown once. Read-outs that look alike come from different tables or passages of the source.

Assays:
[1] = biological target: Recombinant ROCK2 (amino acids 1-552) (Homo sapiens (Human), UniProt O75116); test: Z′-Lyte kinase assay, ROCK2; format: biochemical; conditions: for inhibition at 1 µM: 1 μM compound, read-out: ROCK2 % inh. @ [conc]
Outline: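 IC50s derive from nonlinear curve fits over a 9-point, 2-fold dilution series, with single-point inhibition at 1 μM expressed relative to DMSO. Activity of truncated human ROCK1 (residues 1-535) and ROCK2 (residues 1-552) measured with the Z′-Lyte kinase format.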

[2] = tested on: ppMlc (T18/S19) levels in A7R5 cells; test: A7R5 in-cell ELISA (pMLC); format: cell-based, Rat; conditions: for inhibition at 10 µM / pMLC % inh A7R5 @ [conc]: 10 μM compound
Outline: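 Cellular IC50 came from a nonlinear regression fit of ppMlc (T18/S19) signal, read by colorimetric in-cell ELISA on fixed cells. Rat A7R5 aortic smooth muscle cells had been exposed for 90 min to compounds in 9-point 2-fold serial dilution, 24 h after seeding.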

[3] = Rattus norvegicus, A7R5, A7R5 cells, read-out: pMLC % inh A7R5 @ [conc]
[4] = Rattus norvegicus, A7R5, A7R5 cells, ppMlc (T18/S19)
[5] = Rattus norvegicus, A7R5, A7R5 cells

Sequence of Recombinant ROCK2 (amino acids 1-552) (O75116 1-552): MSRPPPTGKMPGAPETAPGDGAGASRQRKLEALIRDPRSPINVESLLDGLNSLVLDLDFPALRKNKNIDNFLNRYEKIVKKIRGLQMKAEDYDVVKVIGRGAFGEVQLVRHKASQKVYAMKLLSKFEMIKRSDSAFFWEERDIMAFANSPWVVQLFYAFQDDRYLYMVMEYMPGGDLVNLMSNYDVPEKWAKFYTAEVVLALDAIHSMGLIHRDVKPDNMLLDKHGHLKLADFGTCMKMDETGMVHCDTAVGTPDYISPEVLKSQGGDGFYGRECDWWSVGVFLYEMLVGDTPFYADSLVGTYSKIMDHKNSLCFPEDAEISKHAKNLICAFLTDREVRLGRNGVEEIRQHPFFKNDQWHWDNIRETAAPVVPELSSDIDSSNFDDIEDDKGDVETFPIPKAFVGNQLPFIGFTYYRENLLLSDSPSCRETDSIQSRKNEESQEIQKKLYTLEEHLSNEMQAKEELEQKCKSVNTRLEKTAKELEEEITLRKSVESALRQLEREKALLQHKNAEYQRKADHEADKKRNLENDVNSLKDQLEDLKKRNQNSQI

| SMILES | IC50 [1] [µM] | inhibition at 10 µM [2, 3] [%] | further results |
| --- | --- | --- | --- |
| CC1CCNCCN1c1nccc(Nc2ccc3[nH]ncc3c2)n1 (stereo not drawn) [Example 240, N-(2-(7-methyl-1,4-diazepan-1-yl)pyrimidin-4-yl)-1H-indazol-5-amine] |  | 78.1 | inhibition at 1 µM [1]: 84.5%; IC50 [2, 4]: 1110 nM |
| CCC1CNCCCN1c1nccc(Nc2ccc3[nH]ncc3c2)n1 (stereo not drawn) [Example 241, N-(2-(2-ethyl-1,4-diazepan-1-yl)pyrimidin-4-yl)-1H-indazol-5-amine] |  | 81 | inhibition at 1 µM [1]: 85.2%; IC50 [2, 4]: 954 nM |
| COc1cccc(CN(C)C2CCCN(c3nccc(Nc4ccc5[nH]ncc5c4)n3)C2)c1 (stereo not drawn) [Example 242, N-(2-(3-((3-methoxybenzyl)(methyl)amino)piperidin-1-yl)pyrimidin-4-yl)-1H-indazol-5-amine] | 0.747 | 41.2 |  |
| COc1ccccc1NC1CCCN(c2nccc(Nc3ccc4[nH]ncc4c3)n2)C1 (stereo not drawn) [Example 244, N-(2-(3-((2-methoxyphenyl)amino)piperidin-1-yl)pyrimidin-4-yl)-1H-indazol-5-amine] | > 10 | 0.8 |  |
| COc1ccc(N[C@@H]2CCN(c3nccc(Nc4ccc5[nH]ncc5c4)n3)C2)cc1 [Example 246, (R)—N-(2-(3-((4-methoxyphenyl)amino)pyrrolidin-1-yl)pyrimidin-4-yl)-1H-indazol-5-amine] |  | 1.8 | ROCK2 % inh. @ [conc] ([1]; concentration not given): 0% |
| N[C@H]1CCN(c2nccc(Nc3ccc(-c4cn[nH]c4)cc3)n2)C1 [Example 254, (S)—N-(4-(1H-pyrazol-4-yl)phenyl)-2-(3-aminopyrrolidin-1-yl)pyrimidin-4-amine] | 1.23 | 16.2 |  |
| OC1CC2CCC(C1)N2c1nccc(Nc2ccc(-c3cn[nH]c3)cc2)n1 (stereo not drawn) [Example 259, 8-(4-((4-(1H-pyrazol-4-yl)phenyl)amino)pyrimidin-2-yl)-8-azabicyclo[3.2.1]octan-3-ol] | > 10 |  | inhibition at 10 µM ([2]; Rattus norvegicus, A7R5 cells, read-out: pMLC % inh A7R5 @ [conc]): 6.48% |
| Cc1cnc(N2CCCNCC2)nc1Nc1ccc(-c2cn[nH]c2)cc1 [Example 261, N-(4-(1H-pyrazol-4-yl)phenyl)-2-(1,4-diazepan-1-yl)-5-methylpyrimidin-4-amine] |  | 86 | inhibition at 1 µM [1]: 74%; IC50 [2, 4]: 1880 nM |
| c1cc(-c2cn[nH]c2)ccc1Nc1nc(N2CCCNCC2)nc2c1CSC2 [Example 263, N-(4-(1H-pyrazol-4-yl)phenyl)-2-(1,4-diazepan-1-yl)-5,7-dihydrothieno[3,4-d]pyrimidin-4-amine] |  | 82 | inhibition at 1 µM [1]: 101%; IC50 [2, 4]: 1390 nM |
| c1cc2nc(N3CCCNCC3)nc(Nc3ccc(-c4cn[nH]c4)cc3)c2s1 [Example 264, N-(4-(1H-pyrazol-4-yl)phenyl)-2-(1,4-diazepan-1-yl)thieno[3,2-d]pyrimidin-4-amine] |  | 60.2 | inhibition at 1 µM [1]: 92.8%; IC50 ([1]; 9 points 2-fold serial dilution): 0.03 µM; IC50 [2, 4]: 514 nM |
| Cc1cc(Nc2ccc(-c3cn[nH]c3)cc2)nc(N2CCCNCC2)n1 [Example 265, N-(4-(1H-pyrazol-4-yl)phenyl)-2-(1,4-diazepan-1-yl)-6-methylpyrimidin-4-amine] |  | 80 | inhibition at 1 µM [1]: 71.2%; IC50 [2, 4]: 1370 nM |
| COc1cnc(N2CCCNCC2)nc1Nc1ccc(-c2cn[nH]c2)cc1 [Example 267, N-(4-(1H-pyrazol-4-yl)phenyl)-2-(1,4-diazepan-1-yl)-5-methoxypyrimidin-4-amine] |  | 70 | inhibition at 1 µM [1]: 52.3% |
| Clc1cnc(N2CC3CC(C2)N3)nc1Nc1ccc2[nH]ncc2c1 [Example 280, N-(2-(3,6-diazabicyclo[3.1.1]heptan-3-yl)-5-chloropyrimidin-4-yl)-1H-indazol-5-amine] | 0.263 |  | inhibition at 1 µM ([2]; Rattus norvegicus, A7R5, A7R5 cells, 1 μM compound, read-out: pMLC % inh A7R5 @ [conc]): 26.6% |
| CN1CCc2nc(N3C4CCC3CNC4)nc(Nc3ccc(-c4cn[nH]c4)cc3)c2C1 [Example 303, N-(4-(1H-pyrazol-4-yl)phenyl)-2-(3,8-diazabicyclo[3.2.1]octan-8-yl)-6-methyl-5,6,7,8-tetrahydropyrido[4,3-d]pyrimidin-4-amine] | 0.257 |  | IC50 [2, 5]: > 10000 nM |
| c1cc(-c2ccc(Nc3nc(N4C5CCC4CNC5)nc4c3CNC4)cc2)ccn1 [Example 306, 2-(3,8-diazabicyclo[3.2.1]octan-8-yl)-N-(4-(pyridin-4-yl)phenyl)-6,7-dihydro-5H-pyrrolo[3,4-d]pyrimidin-4-amine] | > 1 |  | IC50 [2, 5]: > 10000 nM |

Second part, led by results:

| IC50 [1] [µM] | SMILES | inhibition at 10 µM [2, 3] [%] | further results |
| --- | --- | --- | --- |
| 1.65 | COc1cccc(C2CCN(c3nccc(Nc4ccc(-c5cn[nH]c5)cc4)n3)C2)c1 (stereo not drawn) [Example 269, N-(4-(1H-pyrazol-4-yl)phenyl)-2-(3-(3-methoxyphenyl)pyrrolidin-1-yl)pyrimidin-4-amine] |  | pMLC % inh A7R5 @ [conc] ([2]; A7R5 cells): −5.7% and −7.2% |
| 1.43 | c1ccc(C2CCN(c3nccc(Nc4ccc(-c5cn[nH]c5)cc4)n3)C2)cc1 (stereo not drawn) [Example 270, N-(4-(1H-pyrazol-4-yl)phenyl)-2-(3-phenylpyrrolidin-1-yl)pyrimidin-4-amine] |  | pMLC % inh A7R5 @ [conc] ([2]; A7R5 cells): −6.9% and −8.9% |
| > 10 | c1cc(Nc2ccnc(N3CCNCC3)n2)cc(-c2cn[nH]c2)c1 [Example 347, N-(3-(1H-pyrazol-4-yl)phenyl)-2-(piperazin-1-yl)pyrimidin-4-amine] | 17 |  |
| 3.7 | Nc1ccc(-c2ccc(Nc3ccnc(N4CCNCC4)n3)cc2)cn1 [Example 350, N-(4-(6-aminopyridin-3-yl)phenyl)-2-(piperazin-1-yl)pyrimidin-4-amine] | 14.8 |  |
| > 10 | c1cc(Nc2ccc(-c3cnc[nH]3)cc2)nc(N2CCNCC2)n1 [Example 351, N-(4-(1H-imidazol-5-yl)phenyl)-2-(piperazin-1-yl)pyrimidin-4-amine] | 7.8 |  |
| > 10 | c1cc(Nc2ccc(-c3cncs3)cc2)nc(N2CCNCC2)n1 [Example 353, 2-(piperazin-1-yl)-N-(4-(thiazol-5-yl)phenyl)pyrimidin-4-amine] |  | pMLC % inh A7R5 @ [conc] ([2]; A7R5 cells): 25.55% |
| > 10 | c1cc(Nc2ccc(-c3nnc[nH]3)cc2)nc(N2CCNCC2)n1 [Example 354, N-(4-(4H-1,2,4-triazol-3-yl)phenyl)-2-(piperazin-1-yl)pyrimidin-4-amine] | 6.4 |  |
| > 10 | Nc1nc(-c2ccc(Nc3ccnc(N4CCNCC4)n3)cc2)cs1 [Example 355, 4-(4-((2-(piperazin-1-yl)pyrimidin-4-yl)amino)phenyl)thiazol-2-amine] | 21.9 |  |
| > 10 | Nc1nnc(-c2ccc(Nc3ccnc(N4CCNCC4)n3)cc2)s1 [Example 356, 5-(4-((2-(piperazin-1-yl)pyrimidin-4-yl)amino)phenyl)-1,3,4-thiadiazol-2-amine] | 6.59 |  |
| 1.9 | O=c1ccc(-c2ccc(Nc3ccnc(N4CCNCC4)n3)cc2)n[nH]1 [Example 357, 6-(4-((2-(piperazin-1-yl)pyrimidin-4-yl)amino)phenyl)pyridazin-3 (2H)-one] | 6.35 |  |
| > 10 | c1cc(Nc2ccc(-c3cnco3)cc2)nc(N2CCNCC2)n1 [Example 358, N-(4-(oxazol-5-yl)phenyl)-2-(piperazin-1-yl)pyrimidin-4-amine] | 24.3 |  |
| > 10 | Nc1cc(-c2ccc(Nc3ccnc(N4CCNCC4)n3)cc2)ccn1 [Example 359, N-(4-(2-aminopyridin-4-yl)phenyl)-2-(piperazin-1-yl)pyrimidin-4-amine] | 21.8 |  |
| 5.2 | O=c1cc(-c2ccc(Nc3ccnc(N4CCNCC4)n3)cc2)cc[nH]1 [Example 360, 4-(4-((2-(piperazin-1-yl)pyrimidin-4-yl)amino)phenyl)pyridin-2(1H)-one] | 1.69 |  |
| > 10 | Nc1ncc(-c2ccc(Nc3ccnc(N4CCNCC4)n3)cc2)s1 [Example 361, 5-(4-((2-(piperazin-1-yl)pyrimidin-4-yl)amino)phenyl)thiazol-2-amine] | 2.02 |  |
| > 10 | O=C1Cc2cc(Nc3ccnc(N4CCNCC4)n3)ccc2N1 [Example 365, 5-((2-(piperazin-1-yl)pyrimidin-4-yl)amino)indolin-2-one] | 5.72 |  |
| 1.05 | c1cc(Nc2ccc(-c3ccnc4[nH]ccc34)cc2)nc(N2CCNCC2)n1 [Example 368, N-(4-(1H-pyrrolo[2,3-b]pyridin-4-yl)phenyl)-2-(piperazin-1-yl)pyrimidin-4-amine] | 91.3 | IC50 [2, 5]: 1630 nM |
| 6.27 | c1cc(Nc2cnc3[nH]ccc3c2)nc(N2CCCNCC2)n1 [Example 370, N-(2-(1,4-diazepan-1-yl)pyrimidin-4-yl)-1H-pyrrolo[2,3-b]pyridin-5-amine] | 5.8 |  |
